Test results from US4939178A, “Use of avarol for the control of adult T-cell leukemia/lymphoma” (Merz + Co. GmbH & Co., priority 1986, dated 1990).
Read-outs that look alike come from different tables or passages of the source.

Key:
ATL-1K cells = assay: Cell growth of ATL-1K cells; type: cell-based; conditions: two days, control 15.7
Excerpt: (§1) For this, the MT-2, ATL-3I, and ATL-1K cell lines were employed. These cell lines are described by Hashino, H., et al., Proc. Nat. Academy Science U.S.A. 80, 6061-6065 (1983) and by Miyoshi, J., et al., Nature 294, 770-771 (1981). All these cell lines contain the HTLV-provirus, and among these cell lines primarily the lines MT-2 and ATL-3I express also the retrovirus antigens and also produce the HTLV-I virus.
(§2) Cell culture conditions were employed according to those described by H. Hoshino, et al., Proc. Nat. Acad. Sci. (U.S.A.) 80, 1983, 7337-7341.
(§3) ATL-3-I, MT-2, and ATL-1K cells were seeded into Petri dishes in a concentration of 3×10^3 cells/cm^2 in a culture medium containing 20% of calf serum. After incubation for two days, the density of the cells amounted to: […]: 13.2×10^3 cells/cm^2; MT-2: 12.4×10^3 cells/cm^2; ATL-1K: 15.7×10^3 cells/cm^2. These values formed the control values.
(§4) Thereupon samples of these cells were treated for two days with different concentrations of avarol.

[1] = type: in vivo, rats
[2] = system: peripheral human lymphocytes (buffy coat cells); assay: Interferon-gamma production by lymphocytes (EIA); type: cell-based
Protocol: Effector cells: Buffy coat cells were prepared by centrifugation on Ficoll-Plaque gradient and washed two times. Subsequently the cells were divided and adjusted to a concentration of 5×1,000,000 cells/ml.
Interferon measurement: Levels of Interferon were defined by an Enzymeimmunoassay (EIA). Interferon gamma: 96 well flat bottom plates (Greiner, Nuertingen) were coated with a monoclonal antibody recognizing Interferon gamma. 200 μl of the supernatant sample were added per well together with Interferon gamma-peroxidase coupled (50 μl), consisting of the same antibody as used for coating. […] The enzymatic reaction is completed by a preparation containing hydrogen peroxide substrate. The reaction is stopped within 15 minutes by 100 μl of sulfuric acid per well. The amount of Interferon is defined by comparing the extinction of the test sample with a standard curve produced by known values of Interferon gamma.

[3] = system: male NMRI mice immunized with SRBC; assay: Jerne plaque test, in vivo immunoglobulin production; conditions: avarol 30 mg/kg i.p., from 0 to +4
Protocol: The plaque test of Jerne and Nordin (Science 140: 405-406, 1963) was used with the modification given by Cunningham and Szenberg (Immunolog. 14: 599-601; 1968). Briefly, 8 male NMRI mice per group (20-22 g) were immunized on day 0 by i.p. injection of 5×10^8 SRBC in 0.5 ml saline. Treatment with avarol was done i.p. either from day 0 to day +4 or from day -4 to day 0. One hour after the last drug administration, the animals were killed by a blow on the head and bled. The spleens were removed and a single cell suspension was prepared by teasing the pooled spleens through a 120μm mesh sieve. After lysing the erythrocytes by 0.15M NH4 Cl, the cells were washed twice in Hank's balanced salt solution containing 29 ml of 7.5% NaHCO3 and 10 ml of 1M HEPES buffer solution per one liter. The cells were resuspended in 2 ml per spleen. Six Cunningham chambers per group were filled with a mixture of 0.5 ml of a suitable dilution of spleen cells (generally 1:100), 0.5 ml of a suspension of SRBC (10^9 /ml) and 125 μl of normal guinea pig complement. After 90-120 min of incubation at 37° C., the number of plaques was counted. Plaques per spleen or per 10^6 spleen cells were calculated.
The pooled blood of 8 mice was centrifuged to obtain the serum. IgM and IgG titers were measured with the mercaptoethanol method (Hudson, L. and Hay, F. C. Practical Immunology, Blackwell Sci., Oxford; 1983).

male NMRI mice [4] = assay: Delayed-type hypersensitivity to sheep red blood cells; type: in vivo
Protocol: Reaction to sheep red blood cells (SRBC): DTH was produced according to the method of Lagrange et al. (J. Exp. Med. 139: 528-542; 1974) and Liew (Eur. J. Immunol. 7, 714-718; 1977). Male NMRI mice (20-23 g, 10 animals/group) were immunized with 10^8 SRBC/40 μl into one foot pad (day 0). Four days later 10^9 SRBC/40 μl were injected into the other foot pad. After 24 hours, paw size was measured with a dial gauge caliper Odi-Test OOT (H. C. Kroeplin, Schluchtern, Germany). Avarol (in 0.15% [w/v] methylcellulose) was administered daily i.p. either from day -2 to +1 or from day +2 to +4. The level of DTH was expressed as foot pad increase, determined after 24 hrs; and it is given in mm. Non-treated groups were injected i.p. with methylcellulose only. Treated groups were compared with the controls using the U-test of Wilcoxon et al. (Sachs, L. Angewandte Statistik, Springer-Verlag, Berlin; 1984).

[5] = Organ distribution of tritium labelled avarol; type: in vivo, rats
Protocol: The organ distribution was determined by the same method using tritium labelled Avarol. The determinations were performed 24 hours after termination of the i.v. application. These concentrations were determined on the basis of radioactivity. Moreover, the chemical nature of the radioactive product was identified by high-pressure liquid chromatography and found to consist of over 90% of Avarol. In addition, the biological activity of the compound in the blood was determined after extraction with ethyl acetate and estimated in the […] cell system in vitro (Muller, W. E. G. et al.; Comp. Biochem. Physiol. 80C, 47-52; 1985). Using this system, the biological activity of the compound, present in the blood, was determined and converted on a gram basis. Using this approach the concentration in the blood was only 5-15% lower than that determined on the basis of radioactivity.

[6] = system: retroviral (HTLV-I) antigen in ATL-3-I cells; assay: microbe, parasite or virus in culture; type: cell-based; conditions: Primate T-lymphotropic virus 1, read-out: Expression of retroviral antigen (in %)
[7] = system: macrophage-containing and macrophage-depleted lymphocyte cultures; assay: [3H]-dThd incorporation in lymphocyte cultures of pretreated mice; conditions: pretreatment of mice with avarol, lymphocyte cultures in vitro
male Sprague-Dawley rats = assay: Antibody mediated hypersensitivity, modified active Arthus reaction; type: in vivo
Protocol: A modified active Arthus reaction was performed as described (Titus et al., J. Immunol. Methods 45: 65-78; 1981). Male Sprague-Dawley rats (8/group) weighing 120 g were immunized by injecting into the tail base 0.5 ml of a suspension of 4.4 ml pertussis vaccine (Behringwerke, Marburg) in 65.6 ml of 0.9% saline plus 0.7 g ovalbumin (3×cryst.) in 100 ml paraffin oil. Three weeks after immunization 0.1 ml of 0.03% ovalbumin solution were injected into a hind paw and the paw volume was measured with a water plethysmometer (Rhema) immediately thereafter and again after 4 hours. The animals were treated i.p. with daily doses from 3-30 mg/kg of avarol (in 0.15% [w/v] methylcellulose) according to the following schedules: (i) day -1 to +2, (ii) day +18 to +21 or (iii) twice 24 hours and 30 minutes before challenge (day 0 represents the day of immunization). The controls received methylcellulose only. Values are compared with a control group using Student's-t-test (L. Sachs. Angewandte Statistik, Springer-Verlag, Berlin; 1984).

male NMRI mice [8] = assay: Contact allergy to oxazolone; type: in vivo; conditions: 3-30 mg/kg i.p., day -1 to +2 or day +6 to +8; P>0.05
MT-2 cells = assay: Cell growth of MT-2 cells; type: cell-based; conditions: two days, control 12.4
Excerpt: as §1, §2, §3, §4

ATL-3-I cells = assay: Cell growth of ATL-3-I cells; type: cell-based; conditions: two days, control 13.2
Excerpt: as §1, §2, §3, §4

[9] = system: T-cell derived leukemia cells; conditions: cited from earlier work

## CC1=CCC[C@H]2[C@](C)(Cc3cc(O)ccc3O)[C@@H](C)CC[C@]12C [Avarol, 2-[(1R)-1,2,3,4,4a,7,8,8aα-octahydro-1β,2β,4aβ,5-tetramethyl-1-naphthylmethyl]-1,4-benzenediol]
ATL-1K cells; drug 1.0 μg/ml
  Cell concentration ATL-1K: 13.4 × 10^3 /cm^2
ATL-1K cells; drug 5.0 μg/ml
  Cell concentration ATL-1K: 10.3 × 10^3 /cm^2
[1]; 10 mg/kg i.v., 1 hour
  Percentage of Radioactivity in Blood: 96%
[1]; 10 mg/kg i.v., 6 hours
  Percentage of Radioactivity in Blood: 88%
[1]; 10 mg/kg i.v., 12 hours
  Percentage of Radioactivity in Blood: 72%
[1]; 10 mg/kg i.v., 24 hours
  Percentage of Radioactivity in Blood: 43%
[1]; 10 mg/kg i.v., 48 hours
  Percentage of Radioactivity in Blood: 26%
[1]; 20 mg/kg i.v., 1 hour
  Percentage of Radioactivity in Blood: 92%
[1]; 20 mg/kg i.v., 12 hours
  Percentage of Radioactivity in Blood: 75%
[1]; 20 mg/kg i.v., 24 hours
  Percentage of Radioactivity in Blood: 39%
[1]; 20 mg/kg i.v., 48 hours
  Percentage of Radioactivity in Blood: 21%
[1]; rat, in vivo
  Percentage of Radioactivity in Blood: 83
[2]; avarol 1.0 μg/ml, 48 hours
  Titer of Interferon-gamma produced by lymphocytes: 52 Units/ml of supernatant
[2]; buffy coat cells
  optimal dose for Interferon gamma induction in vitro: 0.5 µg/mL
[3]
  Cell/spleen: 1.2e+08 cells/spleen
Male NMRI mice [4]; i.p. day +2 to +4 after immunization, doses higher than 10 mg/kg
  influence on DTH to SRBC: weak but significant immunosuppressive effect
Male NMRI mice [4]; i.p. day -2 to +1, up to daily doses of 30 mg/kg
  influence on DTH to SRBC: no significant immunosuppressive influence
[5]; 10 mg/kg i.v., 24 hours
  Concentration of Avarol, Skin: 0.6 microgram of Avarol per gram o
[5]; 20 mg/kg i.v., 24 hours
  Concentration of Avarol, Brain: 0.64 microgram of Avarol per gram o
[5]; rats
  blood-brain barrier penetration: penetrates the blood-brain barrier
[6]
  activity at 1 µg/mL: 82%
  activity at 5 µg/mL: 74%
[7]
  [3H]-dThd incorporation rate: higher
Male Sprague-Dawley rats; 30 mg/kg, 24 hours and 30 minutes before challenge, P>0.05
  suppression of the Arthus reaction: not significant
Male Sprague-Dawley rats; 3-30 mg/kg i.p., day -1 to +2, day +18 to +21 or immediately before challenge
  suppression of the Arthus reaction: no significant suppression
Male NMRI mice [8]
  influence on DTH oxazolone: did not influence significantly
MT-2 cells; drug 1.0 μg/ml
  Cell concentration MT-2: 8.1 × 10^3 /cm^2
MT-2 cells; drug 5.0 μg/ml
  Cell concentration MT-2: 7.9 × 10^3 /cm^2
ATL-3-I cells; drug 1.0 μg/ml
  Cell concentration ATL-3-I: 9.4 × 10^3 /cm^2
ATL-3-I cells; drug 5.0 μg/ml
  Cell concentration ATL-3-I: 8.7 × 10^3 /cm^2
[9]
  lymphoma cell growth inhibited by 50%: 0.3 to 0.4 µg/mL
